Assay: refractive index (Na D-line) (dimensionless); xn = mol fraction of the nth substance listed
Conditions: 100 kPa, Liquid, minimum deviations angle

Brc1ccccc1 [bromobenzene] + CCCCCC[n+]1ccn(C)c1.O=S(=O)([N-]S(=O)(=O)C(F)(F)F)C(F)(F)F
Conditions | refractive index
282.96 K, x2 = 0.126 | 1.5213
282.97 K, x2 = 0.014 | 1.5558
282.97 K, x2 = 0.099 | 1.5287
283 K, x2 = 0 | 1.5612
283 K, x2 = 0.012 | 1.5566
283.05 K, x2 = 0.203 | 1.5043
284.39 K, x2 = 0.098 | 1.5279
284.4 K, x2 = 0 | 1.5605
284.53 K, x2 = 0.016 | 1.5545
284.53 K, x2 = 0.094 | 1.5291
284.67 K, x2 = 0.012 | 1.5558
284.89 K, x2 = 0.126 | 1.5204
285.06 K, x2 = 0.203 | 1.5035
285.53 K, x2 = 0.098 | 1.5273
285.73 K, x2 = 0.017 | 1.5534
285.73 K, x2 = 0.091 | 1.5294
285.75 K, x2 = 0 | 1.5598
286.57 K, x2 = 0.012 | 1.5548
286.96 K, x2 = 0 | 1.5591
286.98 K, x2 = 0.126 | 1.5195
287.01 K, x2 = 0.203 | 1.5027
287.53 K, x2 = 0.019 | 1.5516
287.53 K, x2 = 0.086 | 1.53
287.59 K, x2 = 0.098 | 1.5264
287.98 K, x2 = 0 | 1.5585
288.27 K, x2 = 0.012 | 1.5539
288.42 K, x2 = 0.021 | 1.5506
288.42 K, x2 = 0.083 | 1.5304
288.67 K, x2 = 0.085 | 1.5295
288.99 K, x2 = 0 | 1.558
289.12 K, x2 = 0.126 | 1.5186
289.13 K, x2 = 0.022 | 1.5497
289.13 K, x2 = 0.08 | 1.5307
289.18 K, x2 = 0.203 | 1.5018
289.79 K, x2 = 0.085 | 1.529
289.81 K, x2 = 0.098 | 1.5254
289.82 K, x2 = 0.024 | 1.5487
289.82 K, x2 = 0.077 | 1.5313
290.11 K, x2 = 0 | 1.5574
290.23 K, x2 = 0.012 | 1.5529
290.33 K, x2 = 0.026 | 1.5478
290.33 K, x2 = 0.074 | 1.5318
290.81 K, x2 = 0.085 | 1.5286
290.82 K, x2 = 0.027 | 1.547
290.82 K, x2 = 0.072 | 1.5324
290.87 K, x2 = 0.026 | 1.5473
291.09 K, x2 = 0.203 | 1.501
291.14 K, x2 = 0.126 | 1.5177
291.16 K, x2 = 0.029 | 1.5462
291.16 K, x2 = 0.069 | 1.533
291.22 K, x2 = 0 | 1.5568
291.34 K, x2 = 0.012 | 1.5524
291.44 K, x2 = 0.03 | 1.5456
291.44 K, x2 = 0.067 | 1.5336
291.49 K, x2 = 0.075 | 1.5311
291.54 K, x2 = 0.031 | 1.5453
291.54 K, x2 = 0.066 | 1.5338
291.64 K, x2 = 0.031 | 1.5451
291.64 K, x2 = 0.065 | 1.5341
291.71 K, x2 = 0.098 | 1.5245
291.74 K, x2 = 0.032 | 1.5448
291.74 K, x2 = 0.064 | 1.5343
291.83 K, x2 = 0.033 | 1.5445
291.83 K, x2 = 0.063 | 1.5346
291.91 K, x2 = 0.033 | 1.5442
291.91 K, x2 = 0.062 | 1.5349
291.98 K, x2 = 0.034 | 1.5439
291.98 K, x2 = 0.061 | 1.5351
292.03 K, x2 = 0.026 | 1.5467
292.04 K, x2 = 0.035 | 1.5436
292.04 K, x2 = 0.06 | 1.5354
292.08 K, x2 = 0.036 | 1.5433
292.08 K, x2 = 0.059 | 1.5356
292.14 K, x2 = 0.085 | 1.5279
292.15 K, x2 = 0.037 | 1.5428
292.15 K, x2 = 0.058 | 1.536
292.21 K, x2 = 0.038 | 1.5424
292.21 K, x2 = 0.056 | 1.5365
292.21 K, x2 = 0.075 | 1.5307
292.21 K, x2 = 0.126 | 1.5172
292.22 K, x2 = 0.203 | 1.5005
292.24 K, x2 = 0.039 | 1.5421
292.24 K, x2 = 0.055 | 1.5368
292.25 K, x2 = 0.039 | 1.5419
292.25 K, x2 = 0.055 | 1.5369
292.26 K, x2 = 0.04 | 1.5416
292.26 K, x2 = 0.054 | 1.5371
292.27 K, x2 = 0.041 | 1.5414
292.27 K, x2 = 0.053 | 1.5373
292.29 K, x2 = 0.042 | 1.541
292.29 K, x2 = 0.052 | 1.5378
292.3 K, x2 = 0.012 | 1.5518
292.3 K, x2 = 0.043 | 1.5407
292.3 K, x2 = 0.051 | 1.538
292.32 K, x2 = 0 | 1.5563
293.01 K, x2 = 0.085 | 1.5276
293.1 K, x2 = 0.026 | 1.5461
293.22 K, x2 = 0.126 | 1.5167
293.22 K, x2 = 0.203 | 1.5001
293.32 K, x2 = 0 | 1.5557
293.35 K, x2 = 0.041 | 1.5407
293.35 K, x2 = 0.06 | 1.5348
293.39 K, x2 = 0.012 | 1.5513
293.5 K, x2 = 0.075 | 1.5301
293.74 K, x2 = 0.098 | 1.5236
293.93 K, x2 = 0.085 | 1.5271
294.22 K, x2 = 0.026 | 1.5456
294.45 K, x2 = 0.041 | 1.5401
294.49 K, x2 = 0.06 | 1.5343
294.54 K, x2 = 0.075 | 1.5296
295.1 K, x2 = 0.085 | 1.5266
295.1 K, x2 = 0.098 | 1.523
295.32 K, x2 = 0.026 | 1.545
295.66 K, x2 = 0.06 | 1.5337
295.82 K, x2 = 0.041 | 1.5394
295.84 K, x2 = 0.075 | 1.529
296.86 K, x2 = 0.06 | 1.5331
297.11 K, x2 = 0.041 | 1.5388
297.16 K, x2 = 0.075 | 1.5284
297.94 K, x2 = 0.06 | 1.5325
298.49 K, x2 = 0.041 | 1.5381
298.64 K, x2 = 0.026 | 1.5433
298.7 K, x2 = 0.075 | 1.5277
299.03 K, x2 = 0.06 | 1.532
299.63 K, x2 = 0.041 | 1.5375
299.98 K, x2 = 0.06 | 1.5315
300.84 K, x2 = 0.041 | 1.5369

Reference: the NIST ThermoML archive (doi:10.1016/j.fluid.2016.02.011)
